# System: sleep-deprived healthy volunteers
# Experiment: Polysomnography (PSG) of recovery sleep after sleep deprivation in healthy volunteers
# Assay type: in vivo, human
# Description: Exploratory objectives in sleep-deprived healthy volunteers were as follows: • 1. To compare the effects of Compound A (LD and HD) and modafinil (300 mg) on promoting wakefulness as measured by MWT. • 2. To determine PK-PD relationships for selected PD measures. • 3. To evaluate PK-BP relationships in BP change after Compound A administration. • 4. To compare various polysomnography (PSG) parameters between Day −1 (predose) and Day 2 (recovery sleep). • 5. To determine whether there is any difference in the PSG parameters on Day 2 (recovery sleep) between Compound A and placebo or modafinil. • 6. To evaluate the continuous electroencephalogram (EEG) obtained during the MWTs for power spectra changes for Compound A (LD and HD) versus placebo, Compound A (LD and HD) versus modafinil, and modafinil versus placebo.
# During the day before dosing on Day 1, participants were administered the KSS at scheduled timepoints. A practice MWT session was performed on Day 1 treatment period 1 (only once during the entire study) to familiarize subjects with the procedures. Study drug was administered in the clinic in the evening on Day 1 of each treatment period. Subjects underwent the MWT and KSS at specified timepoints after the start of the infusion. Subjects were required to stay awake between the MWT tests. Following completion of the IV infusion on Day 2, subjects underwent an additional MWT test. When the final MWT test and cognitive testing were completed, subjects were allowed to sleep (recovery sleep) for approximately 6 hours. PSG recording was collected during this time. Subjects were discharged from the unit after completion on Day 2 with continuing actigraphy upon discharge (to begin on Day −6 before the next treatment period). The interval between each subsequent treatment period was at least 7 days to ensure that the subject's circadian rhythm had returned to a normal cycle. Subject's vital signs, including BP, were monitored during the dosing and testing period. Blood samples for determination of Compound A plasma concentrations were collected at specified timepoints on Days 1 and 2 of each treatment period. Subjects completed the Columbia-Suicide Severity Rating Scale (C-SSRS) during screening, before study drug administration, and before discharge on Day 2 of each treatment period.
# The PSGs assess recovery sleep during the day after the end of the sleep deprivation period. There were no corrections for multiple comparisons. […]
# [1] = Compound A 112 mg, recovery sleep
# [2] = HD: Compound A 112 mg, recovery sleep
# [3] = LD: Compound A 44 mg, recovery sleep
structure (smiles),measurement,setting,value
"COC(=O)N1CCC[C@H](NS(C)(=O)=O)[C@@H]1CO[C@H]1CC[C@@H](c2ccccc2)CC1 [Compound A, methyl (2R,3S)-3-((methylsulfonyl)amino)-2-(((cis-4-phenylcyclohexyl)oxy)methyl)piperidine-1-carboxylate]","PSG N2 latency, LS mean difference vs placebo","Compound A 44 mg, recovery sleep",-2.74 min
same,"PSG REM latency, LS mean difference vs placebo",[1],29.64 min
same,"PSG stage REM %, LS mean difference vs placebo",[1],−5.66%
same,"PSG stage REM duration, LS mean difference vs placebo",[1],-19.73 min
same,Stage N3 Duration LS Mean,HD: Compound A 112 mg,87.23 min
same,Stage N3 Duration LS Mean Difference vs placebo Estimate,HD: Compound A 112 mg,5.85 min
same,Stage REM % LS Mean,HD: Compound A 112 mg,15.72%
same,Stage REM % LS Mean Difference vs placebo Estimate,HD: Compound A 112 mg,−5.66%
same,Stage REM Duration LS Mean,HD: Compound A 112 mg,46.83 min
same,Stage REM Duration LS Mean Difference vs placebo Estimate,HD: Compound A 112 mg,-19.73 min
same,Stage Wake % LS Mean,HD: Compound A 112 mg,11.14%
same,Stage Wake % LS Mean Difference vs placebo Estimate,HD: Compound A 112 mg,0.84%
same,Stage Wake Duration LS Mean,HD: Compound A 112 mg,36.46 min
same,Stage Wake Duration LS Mean Difference vs placebo Estimate,HD: Compound A 112 mg,0.93 min
same,Total Arousal Index LS Mean,HD: Compound A 112 mg,9.18
same,Total Arousal Index LS Mean Difference vs placebo Estimate,HD: Compound A 112 mg,−0.81
same,Total Arousal LS Mean,HD: Compound A 112 mg,46.54
same,Total Arousal LS Mean Difference vs placebo Estimate,HD: Compound A 112 mg,−3.87
same,Total Leg Movements LS Mean,HD: Compound A 112 mg,16.94
same,Total Leg Movements LS Mean Difference vs placebo Estimate,HD: Compound A 112 mg,−2.01
same,Total Leg Movements N1 LS Mean,HD: Compound A 112 mg,1.41
same,Total Leg Movements N1 LS Mean Difference vs placebo Estimate,HD: Compound A 112 mg,0.15
same,Total Leg Movements N2 LS Mean,HD: Compound A 112 mg,7.59
same,Total Leg Movements N2 LS Mean Difference vs placebo Estimate,HD: Compound A 112 mg,−0.95
same,Total Leg Movements N3 LS Mean,HD: Compound A 112 mg,2.72
same,Total Leg Movements N3 LS Mean Difference vs placebo Estimate,HD: Compound A 112 mg,1.09
same,Total Leg Movements REM LS Mean,HD: Compound A 112 mg,4.18
same,Total Leg Movements REM LS Mean Difference vs placebo Estimate,HD: Compound A 112 mg,−1.57
same,Total Leg Movements with Awakening LS Mean,HD: Compound A 112 mg,0.84
same,Total Leg Movements with Awakening LS Mean Difference vs placebo Estimate,HD: Compound A 112 mg,−0.91
same,Total Leg Movements with Microarous LS Mean,HD: Compound A 112 mg,2.14
same,Total Leg Movements with Microarous LS Mean Difference vs placebo Estimate,HD: Compound A 112 mg,0.13
same,Total Leg Movements with Resp Event LS Mean,HD: Compound A 112 mg,0.06
same,Total Leg Movements with Resp Event LS Mean Difference vs placebo Estimate,HD: Compound A 112 mg,0.01
same,Total Leg Movements without Arousal LS Mean,HD: Compound A 112 mg,14.77
same,Total Leg Movements without Arousal LS Mean Difference vs placebo Estimate,HD: Compound A 112 mg,−2.15
same,Total Recording Time LS Mean,HD: Compound A 112 mg,351.06 min
same,Total Recording Time LS Mean Difference vs placebo Estimate,HD: Compound A 112 mg,-5.85 min
same,Total Sleep Time LS Mean,HD: Compound A 112 mg,298.98 min
same,Total Sleep Time LS Mean Difference vs Placebo Estimate,HD: Compound A 112 mg,-10.49 min
same,Wake After Persistent Sleep LS Mean,HD: Compound A 112 mg,35.95 min
same,Wake After Persistent Sleep LS Mean Difference vs placebo Estimate,HD: Compound A 112 mg,1.33 min
same,Wake After Sleep Onset LS Mean,HD: Compound A 112 mg,36.46 min
same,Wake After Sleep Onset LS Mean Difference vs placebo Estimate,HD: Compound A 112 mg,0.93 min
same,PSG Awakenings LS Mean,[2],5.71
same,PSG Awakenings LS Mean Difference vs Placebo Estimate,[2],1.22
same,PSG N1 Latency LS Mean,[2],2.89 min
same,PSG N1 Latency LS Mean Difference vs Placebo Estimate,[2],-2.47 min
same,PSG N2 Latency LS Mean,[2],4.72 min
same,PSG N2 Latency LS Mean Difference vs Placebo Estimate,[2],-1.93 min
same,PSG N3 Latency LS Mean,[2],15.83 min
same,PSG N3 Latency LS Mean Difference vs Placebo Estimate,[2],-11.45 min
same,PSG Per. Slp LS Mean,[2],4.50 min
same,PSG Per. Slp LS Mean Difference vs Placebo Estimate,[2],-2.37 min
same,PSG REM Latency LS Mean,[2],84.57 min
same,PSG REM Latency LS Mean Difference vs Placebo Estimate,[2],29.64 min
same,PSG Sleep Efficiency LS Mean,[2],84.65%
same,PSG Sleep Efficiency LS Mean Difference vs Placebo Estimate,[2],−2.06%
same,PSG Sleep Onset LS Mean,[2],2.94 min
same,PSG Sleep Onset LS Mean Difference vs Placebo Estimate,[2],-1.04 min
same,PSG Spontaneous Arousal Index LS Mean,[2],8.26
same,PSG Spontaneous Arousal Index LS Mean Difference vs Placebo Estimate,[2],−0.67
same,PSG Spontaneous Arousal LS Mean,[2],41.46
same,PSG Spontaneous Arousal LS Mean Difference vs Placebo Estimate,[2],−3.61
same,PSG Stage N1 % LS Mean,[2],6.08%
same,PSG Stage N1 % LS Mean Difference vs Placebo Estimate,[2],0.00%
same,PSG Stage N1 Duration LS Mean,[2],18.05 min
same,PSG Stage N1 Duration LS Mean Difference vs Placebo Estimate,[2],-0.35 min
same,PSG Stage N2 % LS Mean,[2],48.93%
same,PSG Stage N2 % LS Mean Difference vs Placebo Estimate,[2],2.22%
same,PSG Stage N2 Duration LS Mean,[2],147.83 min
same,PSG Stage N2 Duration LS Mean Difference vs Placebo Estimate,[2],3.76 min
same,PSG Stage N3 % LS Mean,[2],29.36%
same,PSG Stage N3 % LS Mean Difference vs Placebo Estimate,[2],3.53%
same,Stage N3 Duration LS Mean,LD: Compound A 44 mg,81.05 min
same,Stage N3 Duration LS Mean Difference vs placebo Estimate,LD: Compound A 44 mg,-0.34 min
same,Stage REM % LS Mean,LD: Compound A 44 mg,20.70%
same,Stage REM % LS Mean Difference vs placebo Estimate,LD: Compound A 44 mg,−0.68%
same,Stage REM Duration LS Mean,LD: Compound A 44 mg,60.76 min
same,Stage REM Duration LS Mean Difference vs placebo Estimate,LD: Compound A 44 mg,-5.80 min
same,Stage Wake % LS Mean,LD: Compound A 44 mg,10.65%
same,Stage Wake % LS Mean Difference vs placebo Estimate,LD: Compound A 44 mg,0.35%
same,Stage Wake Duration LS Mean,LD: Compound A 44 mg,35.55 min
same,Stage Wake Duration LS Mean Difference vs placebo Estimate,LD: Compound A 44 mg,0.02 min
same,Total Arousal Index LS Mean,LD: Compound A 44 mg,10.07
same,Total Arousal Index LS Mean Difference vs placebo Estimate,LD: Compound A 44 mg,0.08
same,Total Arousal LS Mean,LD: Compound A 44 mg,47.56
same,Total Arousal LS Mean Difference vs placebo Estimate,LD: Compound A 44 mg,−2.85
same,Total Leg Movements LS Mean,LD: Compound A 44 mg,12.59
same,Total Leg Movements LS Mean Difference vs placebo Estimate,LD: Compound A 44 mg,−6.35
same,Total Leg Movements N1 LS Mean,LD: Compound A 44 mg,1.60
same,Total Leg Movements N1 LS Mean Difference vs placebo Estimate,LD: Compound A 44 mg,0.34
same,Total Leg Movements N2 LS Mean,LD: Compound A 44 mg,6.04
same,Total Leg Movements N2 LS Mean Difference vs placebo Estimate,LD: Compound A 44 mg,−2.51
same,Total Leg Movements N3 LS Mean,LD: Compound A 44 mg,0.65
same,Total Leg Movements N3 LS Mean Difference vs placebo Estimate,LD: Compound A 44 mg,−0.97
same,Total Leg Movements REM LS Mean,LD: Compound A 44 mg,3.44
same,Total Leg Movements REM LS Mean Difference vs placebo Estimate,LD: Compound A 44 mg,−2.31
same,Total Leg Movements with Awakening LS Mean,LD: Compound A 44 mg,0.68
same,Total Leg Movements with Awakening LS Mean Difference vs placebo Estimate,LD: Compound A 44 mg,−1.07
same,Total Leg Movements with Microarous LS Mean,LD: Compound A 44 mg,2.35
same,Total Leg Movements with Microarous LS Mean Difference vs placebo Estimate,LD: Compound A 44 mg,0.34
same,Total Leg Movements with Resp Event LS Mean,LD: Compound A 44 mg,0.16
same,Total Leg Movements with Resp Event LS Mean Difference vs placebo Estimate,LD: Compound A 44 mg,0.11
same,Total Leg Movements without Arousal LS Mean,LD: Compound A 44 mg,10.21
same,Total Leg Movements without Arousal LS Mean Difference vs placebo Estimate,LD: Compound A 44 mg,−6.71
same,Total Recording Time LS Mean,LD: Compound A 44 mg,342.50 min
same,Total Recording Time LS Mean Difference vs placebo Estimate,LD: Compound A 44 mg,-14.40 min
same,Total Sleep Time LS Mean,LD: Compound A 44 mg,291.34 min
same,Total Sleep Time LS Mean Difference vs Placebo Estimate,LD: Compound A 44 mg,-18.13 min
same,Wake After Persistent Sleep LS Mean,LD: Compound A 44 mg,33.78 min
same,Wake After Persistent Sleep LS Mean Difference vs placebo Estimate,LD: Compound A 44 mg,-0.85 min
same,Wake After Sleep Onset LS Mean,LD: Compound A 44 mg,35.55 min
same,Wake After Sleep Onset LS Mean Difference vs placebo Estimate,LD: Compound A 44 mg,0.02 min
same,PSG Awakenings LS Mean,[3],4.74
same,PSG Awakenings LS Mean Difference vs Placebo Estimate,[3],0.25
same,PSG N1 Latency LS Mean,[3],3.60 min
same,PSG N1 Latency LS Mean Difference vs Placebo Estimate,[3],-1.76 min
same,PSG N2 Latency LS Mean,[3],3.91 min
same,PSG N2 Latency LS Mean Difference vs Placebo Estimate,[3],-2.74 min
same,PSG N3 Latency LS Mean,[3],21.94 min
same,PSG N3 Latency LS Mean Difference vs Placebo Estimate,[3],-5.33 min
same,PSG Per. Slp LS Mean,[3],5.96 min
same,PSG Per. Slp LS Mean Difference vs Placebo Estimate,[3],-0.91 min
same,PSG REM Latency LS Mean,[3],75.10 min
same,PSG REM Latency LS Mean Difference vs Placebo Estimate,[3],20.16 min
same,PSG Sleep Efficiency LS Mean,[3],84.95%
same,PSG Sleep Efficiency LS Mean Difference vs Placebo Estimate,[3],−1.77%
same,PSG Sleep Onset LS Mean,[3],2.71 min
same,PSG Sleep Onset LS Mean Difference vs Placebo Estimate,[3],-1.28 min
same,PSG Spontaneous Arousal Index LS Mean,[3],8.58
same,PSG Spontaneous Arousal Index LS Mean Difference vs Placebo Estimate,[3],−0.36
same,PSG Spontaneous Arousal LS Mean,[3],40.21
same,PSG Spontaneous Arousal LS Mean Difference vs Placebo Estimate,[3],−4.86
same,PSG Stage N1 % LS Mean,[3],5.69%
same,PSG Stage N1 % LS Mean Difference vs Placebo Estimate,[3],−0.39%
same,PSG Stage N1 Duration LS Mean,[3],16.29 min
same,PSG Stage N1 Duration LS Mean Difference vs Placebo Estimate,[3],-2.12 min
same,PSG Stage N2 % LS Mean,[3],46.04%
same,PSG Stage N2 % LS Mean Difference vs Placebo Estimate,[3],−0.66%
same,PSG Stage N2 Duration LS Mean,[3],134.21 min
same,PSG Stage N2 Duration LS Mean Difference vs Placebo Estimate,[3],-9.86 min
same,PSG Stage N3 % LS Mean,[3],27.65%
same,PSG Stage N3 % LS Mean Difference vs Placebo Estimate,[3],1.82%
same,"PSG sleep efficiency, arousals, and total sleep compared with placebo","both Compound A groups (44 and 112 mg), recovery sleep",not different from placebo

# Source: patent publication US20220331303A1, “USE OF AN OREXIN 2 RECEPTOR AGONIST FOR THE TREATMENT OF EXCESSIVE SLEEPINESS” (Takeda Pharmaceutical Company Limited, priority 2019, published 2022)
